Values quoted from earlier work, collected in patent US20240023548A1, “TAU-FLUVALINATE COMPOSITIONS” (Adama Makhteshim Ltd., priority 2020, published 2024).

CC(C)[C@@H](Nc1ccc(C(F)(F)F)cc1Cl)C(=O)OC(C#N)c1cccc(Oc2ccccc2)c1 (some centres unmarked) [Tau-fluvalinate, tau-fluvalinate]
Solubility in organic solvents (organic solvents): soluble in organic solvents | Solubility in water (water): low solubility in water
